Values joined by “and” are separate entries in the source; they are usually repeats but may differ in a detail not shown here. Equal entries are not always repeated.
molecular target: T1, Follicle Stimulating Hormone Receptor (FSHR) (Homo sapiens, UniProt P23945); experiment: HTRF cAMP agonist assay, FSHR, transiently transfected CHO-K1 cells; type: cell-based; settings: CHO-K1 cells transiently expressing human FSHR, read-out: IC50 FSHR LANCE CAMP
T1 construct: HA (N); expressed in transfected cells; host or cells: CHO-K1, transient transfection, pHM6 vector (CMV promoter)
T1 sequence (P23945 18-695): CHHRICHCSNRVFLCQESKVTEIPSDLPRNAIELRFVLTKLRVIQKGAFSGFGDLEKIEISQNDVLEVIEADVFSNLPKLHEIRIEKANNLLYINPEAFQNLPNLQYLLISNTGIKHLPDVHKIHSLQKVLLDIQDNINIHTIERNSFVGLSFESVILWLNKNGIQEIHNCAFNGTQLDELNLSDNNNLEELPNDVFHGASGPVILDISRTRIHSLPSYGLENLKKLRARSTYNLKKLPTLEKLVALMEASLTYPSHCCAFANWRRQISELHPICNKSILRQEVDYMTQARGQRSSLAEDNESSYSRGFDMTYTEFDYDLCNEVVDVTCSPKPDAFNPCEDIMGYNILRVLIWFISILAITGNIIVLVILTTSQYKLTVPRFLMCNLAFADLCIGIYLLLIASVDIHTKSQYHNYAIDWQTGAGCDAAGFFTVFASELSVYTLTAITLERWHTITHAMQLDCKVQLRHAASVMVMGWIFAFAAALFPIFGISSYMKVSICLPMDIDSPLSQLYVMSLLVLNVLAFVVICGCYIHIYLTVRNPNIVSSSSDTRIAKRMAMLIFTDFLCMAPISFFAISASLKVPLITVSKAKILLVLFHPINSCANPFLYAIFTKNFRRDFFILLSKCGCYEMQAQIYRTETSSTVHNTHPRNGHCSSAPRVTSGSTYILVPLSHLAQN

Row | SMILES | IC50
1 | COc1cc2c(cc1-c1cncc(C(N)=O)c1)-c1c(c(C(=O)N3CCC4C3CCN4C(=O)OC(C)(C)C)nn1-c1cc(Cl)cc(Cl)c1)CC2 (stereo not shown) [Compound 8-31A] | 145 nM
2 | COc1cc2c(cc1-c1cncc(C(N)=O)c1)-c1c(c(C(=O)N3CC4CC3CN4C(=O)OC(C)(C)C)nn1-c1cc(Cl)cc(Cl)c1)CC2 (stereo not shown) [Compound 8-33A] | 105 nM
3 | COc1cc2c(cc1-c1cncc(C(N)=O)c1)-c1c(c(C(=O)NC(C)(C)CO)nn1-c1cc(Cl)cc(Cl)c1)CC2 [Compound 8-52A] | 39.3 nM
4 | COc1cc2c(cc1-c1cncc(C(N)=O)c1)-c1c(c(C(=O)N(CC(F)(F)F)CC(F)(F)F)nn1-c1cc(Cl)cc(Cl)c1)CC2 [Compound 8-56] | 61.3 nM
5 | COc1cc2c(cc1-c1cncc(C(N)=O)c1)-c1c(c(C(=O)N3CCNC[C@H]3C(F)(F)F)nn1-c1cc(Cl)cc(Cl)c1)CC2 [Compound 8-57, 5-[1-(3,5-dichlorophenyl)-7-methoxy-3-[(2S)-2-(trifluoromethyl)piperazine-1-carbonyl]-4,5-dihydrobenzo[g]indazol-8-yl]pyridine-3-carboxamide] | 3.89 nM
6 | COc1cc2c(cc1-c1cncc(C(N)=O)c1)-c1c(c(C(=O)N3CCN(CC(F)(F)F)CC3(C)C)nn1-c1cc(Cl)cc(Cl)c1)CC2 [Compound 8-58, 5-(1-(3,5-dichlorophenyl)-3-(2,2-dimethyl-4-(2,2,2-trifluoroethyl)piperazine-1-carbonyl)-7-methoxy-4,5-dihydro-1H-benzo[g]indazol-8-yl)nicotinamide] | 102 nM
7 | CCN1CCN(C(=O)c2nn(-c3cc(Cl)cc(Cl)c3)c3c2CCc2cc(OC)c(-c4cncc(C(N)=O)c4)cc2-3)C(C)(C)C1 [Compound 8-60] | 38.9 nM
8 | COc1cc2c(cc1-c1cncc(C(N)=O)c1)-c1c(c(C(=O)N3CCN(C(C)C)CC3(C)C)nn1-c1cc(Cl)cc(Cl)c1)CC2 [Compound 8-61, 5-(1-(3,5-dichlorophenyl)-3-(4-isopropyl-2,2-dimethylpiperazine-1-carbonyl)-7-methoxy-4,5-dihydro-1H-benzo[g]indazol-8-yl)nicotinamide] | 192 nM
9 | COc1cc2c(cc1-c1cncc(C(N)=O)c1)-c1c(c(C(=O)N3CCN(C4CC4)CC3(C)C)nn1-c1cc(Cl)cc(Cl)c1)CC2 [Compound 8-62] | 122 nM
10 | CCCN1CCN(C(=O)c2nn(-c3cc(Cl)cc(Cl)c3)c3c2CCc2cc(OC)c(-c4cncc(C(N)=O)c4)cc2-3)C(C)(C)C1 [Compound 8-63] | 120 nM
11 | COc1cc2c(cc1-c1cncc(C(N)=O)c1)-c1c(c(C(=O)N3CCN(CC(=O)O)CC3(C)C)nn1-c1cc(Cl)cc(Cl)c1)CC2 [Compound 8-64] | 3400 nM
12 | COc1cc2c(cc1-c1cncc(C(N)=O)c1)-c1c(c(C(=O)N3CCN(CCC(=O)O)CC3(C)C)nn1-c1cc(Cl)cc(Cl)c1)CC2 [Compound 8-65] | 1320 nM
13 | COc1cc2c(cc1-c1cncc(C(N)=O)c1)-c1c(c(C(=O)N3CCN(CCN)CC3(C)C)nn1-c1cc(Cl)cc(Cl)c1)CC2 [Compound 8-66] | 2790 nM
14 | COc1cc2c(cc1-c1cncc(C(N)=O)c1)-c1c(c(C(=O)N3CCCC(=O)C3(C)C)nn1-c1cc(Cl)cc(Cl)c1)CC2 [Compound 8-67, 5-(1-(3,5-dichlorophenyl)-3-(2,2-dimethyl-3-oxopiperidine-1-carbonyl)-7-methoxy-4,5-dihydro-1H-benzo[g]indazol-8-yl)nicotinamide] | 4.24 nM
15 | COc1cc2c(cc1-c1cncc(C(N)=O)c1)-c1c(c(C(=O)N3CCN(C)C(=O)C3(C)C)nn1-c1cc(Cl)cc(Cl)c1)CC2 [Compound 8-69] | 82.2 nM
16 | COc1cc2c(cc1-c1cncc(C(N)=O)c1)-c1c(c(C(=O)N3CCN(CCO)C(=O)C3(C)C)nn1-c1cc(Cl)cc(Cl)c1)CC2 [Compound 8-70] | 140 nM
17 | COc1cc2c(cc1-c1cncc(C(N)=O)c1)-c1c(c(C(=O)N3CCN(CCN)C(=O)C3(C)C)nn1-c1cc(Cl)cc(Cl)c1)CC2 [Compound 8-71] | 3730 nM
18 | COc1cc2c(cc1-c1cncc(C(N)=O)c1)-c1c(c(C(=O)N3CNC(=O)C3(C)C)nn1-c1cc(Cl)cc(Cl)c1)CC2 [Compound 8-72] | 8.99 nM
19 | COc1cc2c(cc1-c1cncc(C(N)=O)c1)-c1c(c(C(=O)N3CC4CC(C3)N4)nn1-c1cc(Cl)cc(Cl)c1)CC2 [Compound 8-74, 5-(3-(3,6-diazabicyclo[3.1.1]heptane-3-carbonyl)-1-(3,5-dichlorophenyl)-7-methoxy-4,5-dihydro-1H-benzo[g]indazol-8-yl)nicotinamide] | 453 nM
20 | CC1(C)C(=O)NCCN1C(=O)c1nn(-c2ccccn2)c2c1CCc1ccc(-c3cncc(C(N)=O)c3)cc1-2 [Compound 8-75] | 27400 nM
21 | CCC1C(=O)NCCN1C(=O)c1nn(-c2ccccn2)c2c1CCc1ccc(-c3cccnc3)cc1-2 (stereo not shown) [Compound 8-78] | 2430 nM
22 | C[C@H]1CNC(=O)[C@H](C)N1C(=O)c1nn(-c2ccccn2)c2c1CCc1ccc(-c3cccnc3)cc1-2 [Compound 8-79] | 6090 nM

The next lines start with the values.

Row | IC50 | SMILES
23 | 2180 nM | COc1cc2c(cc1-c1cncc(C(N)=O)c1)-c1c(c(C(=O)N(C)C3CCN(C)C3)nn1-c1cc(Cl)cc(Cl)c1)CC2 (stereo not shown) [Compound 8-28]
24 | 27.3 nM | COc1cc2c(cc1-c1cncc(C(N)=O)c1)-c1c(c(C(=O)N3C[C@@H]4C[C@H]3CO4)nn1-c1cc(Cl)cc(Cl)c1)CC2 [Compound 8-29]
25 | 1720 nM | COc1cc2c(cc1-c1cncc(C(N)=O)c1)-c1c(c(C(=O)N3CC[C@H]4CN(C)C[C@H]43)nn1-c1cc(Cl)cc(Cl)c1)CC2 [Compound 8-30]
26 | 1760 nM | COc1cc2c(cc1-c1cncc(C(N)=O)c1)-c1c(c(C(=O)N3CCC4C3CCN4C)nn1-c1cc(Cl)cc(Cl)c1)CC2 (stereo not shown) [Compound 8-31]
27 | 0.825 nM | COc1cc2c(cc1-c1cncc(C(N)=O)c1)-c1c(c(C(=O)N3COCC3(C)C)nn1-c1cc(Cl)cc(Cl)c1)CC2 [Compound 8-32]
28 | 441 nM | COc1cc2c(cc1-c1cncc(C(N)=O)c1)-c1c(c(C(=O)N3CC4CC3CN4)nn1-c1cc(Cl)cc(Cl)c1)CC2 (stereo not shown) [Compound 8-33]
29 | 13.4 nM | CCN(C)C(=O)c1nn(-c2cc(Cl)cc(Cl)c2)c2c1CCc1cc(OC)c(-c3cncc(C(N)=O)c3)cc1-2 [Compound 8-34]
30 | 3.99 nM | CCN(CC)C(=O)c1nn(-c2cc(Cl)cc(Cl)c2)c2c1CCc1cc(OC)c(-c3cncc(C(N)=O)c3)cc1-2 [Compound 8-35]
31 | 4.17 nM | COc1cc2c(cc1-c1cncc(C(N)=O)c1)-c1c(c(C(=O)N(C)C(C)C)nn1-c1cc(Cl)cc(Cl)c1)CC2 [Compound 8-36]
32 | 48.4 nM | COc1cc2c(cc1-c1cncc(C(N)=O)c1)-c1c(c(C(=O)N3CCCC3)nn1-c1cc(Cl)cc(Cl)c1)CC2 [Compound 8-37]
33 | 9.16 nM | COc1cc2c(cc1-c1cncc(C(N)=O)c1)-c1c(c(C(=O)N3CCCC3C)nn1-c1cc(Cl)cc(Cl)c1)CC2 (stereo not shown) [Compound 8-38]
34 | 15.5 nM | COc1cc2c(cc1-c1cncc(C(N)=O)c1)-c1c(c(C(=O)N(C)C3CC3)nn1-c1cc(Cl)cc(Cl)c1)CC2 [Compound 8-39]
35 | 1.8 nM and 2.46 nM | CCN(C(=O)c1nn(-c2cc(Cl)cc(Cl)c2)c2c1CCc1cc(OC)c(-c3cncc(C(N)=O)c3)cc1-2)C(C)(C)C [Compound 8-41]
36 | 6.76 nM | COc1cc2c(cc1-c1cncc(C(N)=O)c1)-c1c(c(C(=O)N(C)C(C)C3CC3)nn1-c1cc(Cl)cc(Cl)c1)CC2 (stereo not shown) [Compound 8-42]
37 | 2.59 nM | COc1cc2c(cc1-c1cncc(C(N)=O)c1)-c1c(c(C(=O)N3CCOC[C@@H]3C)nn1-c1cc(Cl)cc(Cl)c1)CC2 [Compound 8-43]
38 | 2.04 nM | CC[C@H]1COCCN1C(=O)c1nn(-c2cc(Cl)cc(Cl)c2)c2c1CCc1cc(OC)c(-c3cncc(C(N)=O)c3)cc1-2 [Compound 8-44]
39 | 17.4 nM | COc1cc2c(cc1-c1cncc(C(N)=O)c1)-c1c(c(C(=O)N3CCC[C@H]3C)nn1-c1cc(Cl)cc(Cl)c1)CC2 [Compound 8-45]
40 | 177 nM | COc1cc2c(cc1-c1cncc(C(N)=O)c1)-c1c(c(C(=O)N(C)C3CCS(=O)(=O)C3)nn1-c1cc(Cl)cc(Cl)c1)CC2 (stereo not shown) [Compound 8-46]
41 | 29.3 nM | COc1cc2c(cc1-c1cncc(C(N)=O)c1)-c1c(c(C(=O)N(C)C3CCCC3)nn1-c1cc(Cl)cc(Cl)c1)CC2 [Compound 8-47]
42 | 2.4 nM | COc1cc2c(cc1-c1cncc(C(N)=O)c1)-c1c(c(C(=O)N3[C@H](C)COC[C@@H]3C)nn1-c1cc(Cl)cc(Cl)c1)CC2 [Compound 8-49]
43 | 3.43 nM | COc1cc2c(cc1-c1cncc(C(N)=O)c1)-c1c(c(C(=O)N3[C@@H](C)COC[C@@H]3C)nn1-c1cc(Cl)cc(Cl)c1)CC2 [Compound 8-50]
44 | 3.06 nM | COc1cc2c(cc1-c1cncc(C(N)=O)c1)-c1c(c(C(=O)N3CCOC3(C)C)nn1-c1cc(Cl)cc(Cl)c1)CC2 [Compound 8-51, 5-(1-(3,5-dichlorophenyl)-3-(2,2-dimethyloxazolidine-3-carbonyl)-7-methoxy-4,5-dihydro-1H-benzo[g]indazol-8-yl)nicotinamide]
45 | 222 nM | COc1cc2c(cc1-c1cncc(C(N)=O)c1)-c1c(c(C(=O)NC(C)CO)nn1-c1cc(Cl)cc(Cl)c1)CC2 (stereo not shown) [Compound 8-54A]
46 | 6.56 nM | COc1cc2c(cc1-c1cncc(C(N)=O)c1)-c1c(c(C(=O)N(C)CC(F)(F)F)nn1-c1cc(Cl)cc(Cl)c1)CC2 [Compound 8-55]
